Assay results published in patent publication US10138230B2, “Autotaxin inhibitors” (CANCER RESEARCH TECHNOLOGY LIMITED, priority 2015, dated 2018).
Structures can show the parent of a compound that is named as a salt.

molecular target: human recombinant ATX (Homo sapiens (Human), UniProt Q13822); test: Autotaxin (ATX) activity Quanta Red assay; assay type: biochemical; settings: 15 μM Rac-1-Palmitoyl-glycero-3-phosphocholine, 2 hours room temperature, determined in duplicate
Protocol: The ATX enzyme assay (Quanta Red assay) described in accompanying Example section may be used to measure the pharmacological effects of the compounds of the present invention.
Autotaxin (ATX) Activity Quanta Red Assay
Measuring ATX activity using an enzyme coupled Quanta Red assay (Thermo Scientific—Pierce Protein Research Products, Product #15159) was determined as follows. 8 μL human recombinant ATX (final concentration 0.8 μg/mL) in 1× Assay buffer containing 50 mM Tris-HCl (pH 8.0), 5 mM CaCl2 was added to an opaque black flat-bottom 384-well plate (Corning, #3575) containing 2 μL test compound in 40% DMSO (4% final DMSO concentration). 10 μL of Quanta Red, Horseradish peroxidase (HRP), Choline Oxidase (CO), Rac-1-Palmitoyl-glycero-3-phosphocholine solution (final concentration 1:250 for Quanta Red, 0.5units/ml HRP, 0.5units/ml CO, 15 μM Rac-1-Palmitoyl-glycero-3-phosphocholine) in 1× assay buffer (as described previously) was added to each well to start the reaction and the plate was incubated at room temperature for 2 hours. The reaction was stopped after 2 hours with a 20 μL addition of Quanta Red Stop solution (1:20 dilution in distilled water). The above-described mixture with DMSO alone was used as a positive control whereas that with DMSO alone without ATX was taken as a negative control.
For each test compound, ten concentrations were measured covering a range of 6.1 nM to 120 μM to determine IC50 values. The top concentration was decreased to 1.2 μM when a test compound's IC50 value was evaluated in low nanomolar range. Fluorescence was determined in a BMG Labtech Pherastar plus plate reader ([…]). Data were analysed using Excel fit software. IC50 values were determined in duplicate.

| SMILES | IC50 |
| --- | --- |
| O=C(Nc1nnc(CCc2ccc(Cl)cc2)s1)C1CC(=O)N(c2ccc(CNC3CCOCC3)cc2)C1 (centres unmarked) [Compound F105, 5-oxo-1-{4-[(tetrahydro-pyran-4-ylamino)-methyl]-phenyl}-pyrrolidine-3-carboxylic acid {5-[2-(4-chloro-phenyl)-ethyl]-[1,3,4]thiadiazol-2-yl}-amide; hydrochloride] | 3 nM |
| O=C(Nc1nnc(CCC2CCCCC2)s1)C1CC(=O)N(c2ccc(CN3CCCCC3)cc2)C1 (centres unmarked) [Compound F106, N-[5-(2-cyclohexylethyl)-1,3,4-thiadiazol-2-yl]-5-oxo-1-[4-(1-piperidylmethyl)phenyl] pyrrolidine-3-carboxamide] | 3 nM |
| O=C(Nc1nnc(CCc2ccc(F)cc2)s1)[C@H]1CC(=O)N(c2ccc(CN3CCOCC3)cc2)C1 [Compound F108, (3S)-N-[5-[2-(4-fluorophenyl)ethyl]-1,3,4-thiadiazol-2-yl]-1-[4-(morpholinomethyl)phenyl]-5-oxo-pyrrolidine-3-carboxamide] | 3 nM |
| O=C(Nc1nnc(CCc2ccc(Cl)cc2)s1)C1CC(=O)N(c2ccc(CN3CC4CC4C3)cc2)C1 (centres unmarked) [Compound F110, 1-[4-(3-azabicyclo[3.1.0]hexan-3-ylmethyl)phenyl]-N-[5-[2-(4-chlorophenyl)ethyl]-1,3,4-thiadiazol-2-yl]-5-oxo-pyrrolidine-3-carboxamide] | 3 nM |
| CN(Cc1ccc(N2CC(C(=O)Nc3nnc(CCc4ccc(Cl)cc4)s3)CC2=O)cc1)C1CCOCC1 (centres unmarked) [Compound F111, N-[5-[2-(4-chlorophenyl)ethyl]-1,3,4-thiadiazol-2-yl]-1-[4-[[methyl(tetrahydropyran-4-yl)amino]methyl]phenyl]-5-oxo-pyrrolidine-3-carboxamide] | 3 nM |
| CCN(Cc1ccc(N2CC(C(=O)Nc3nnc(CCc4ccc(Cl)cc4)s3)CC2=O)cc1)CC(C)C (centres unmarked) [Compound F112, N-[5-[2-(4-chlorophenyl)ethyl]-1,3,4-thiadiazol-2-yl]-1-[4-[[ethyl(isobutyl)amino]methyl]phenyl]-5-oxo-pyrrolidine-3-carboxamide] | 3 nM |
| O=C(Nc1nnc(CCC2CCCC2)s1)C1CC(=O)N(c2ccc(CN3CCC(F)CC3)cc2)C1 (centres unmarked) [Compound F113, N-[5-(2-cyclopentylethyl)-1,3,4-thiadiazol-2-yl]-1-[4-[(4-fluoro-1-piperidyl)methyl]phenyl]-5-oxo-pyrrolidine-3-carboxamide] | 3 nM |
| O=C(Nc1nnc(CCc2ccc(Cl)cc2)s1)C1CC(=O)N(c2ccc(CN3CCCCCC3)cc2)C1 (centres unmarked) [Compound F114, 1-[4-(azepan-1-ylmethyl)phenyl]-N-[5-[2-(4-chlorophenyl)ethyl]-1,3,4-thiadiazol-2-yl]-5-oxo-pyrrolidine-3-carboxamide] | 3 nM |
| O=C(Nc1nnc(CCC2CCCC2)s1)C1CC(=O)N(c2ccc(CN3CCCC(F)(F)C3)cc2)C1 (centres unmarked) [Compound F115, N-[5-(2-cyclopentylethyl)-1,3,4-thiadiazol-2-yl]-1-[4-[(3,3-difluoro-1-piperidyl)methyl]phenyl]-5-oxo-pyrrolidine-3-carboxamide] | 3 nM |
| CCCN(CCC)Cc1ccc(N2CC(C(=O)Nc3nnc(CCc4ccc(Cl)cc4)s3)CC2=O)cc1 (centres unmarked) [Compound F116, N-[5-[2-(4-chlorophenyl)ethyl]-1,3,4-thiadiazol-2-yl]-1-[4-[(dipropyl-amino)methyl]phenyl]-5-oxo-pyrrolidine-3-carboxamide] | 3 nM |
| CN1CCN(Cc2ccc(N3CC(C(=O)Nc4nnc(CCc5ccc(Cl)cc5)s4)CC3=O)cc2)CC1 (centres unmarked) [Compound F117, N-[5-[2-(4-chlorophenyl)ethyl]-1,3,4-thiadiazol-2-yl]-1-[4-[(4-methylpiperazin-1-yl)methyl]phenyl]-5-oxo-pyrrolidine-3-carboxamide] | 4 nM |
| O=C(Nc1ncc(CCc2ccccc2)s1)C1CC(=O)N(c2ccc(CN3CCOCC3)cc2)C1 (centres unmarked) [Compound F118, 1-[4-(morpholinomethyl)phenyl]-5-oxo-N-[5-(2-phenylethyl)thiazol-2-yl]pyrrolidine-3-carboxamide] | 4 nM |
| C[C@@H]1CN(Cc2ccc(N3CC(C(=O)Nc4nnc(CCc5ccc(Cl)cc5)s4)CC3=O)cc2)C[C@H](C)O1 (stereo partly drawn) [Compound F119, N-[5-[2-(4-chlorophenyl)ethyl]-1,3,4-thiadiazol-2-yl]-1-[4-[[(2S,6R)-2,6-dimethylmorpholin-4-yl]methyl]phenyl]-5-oxo-pyrrolidine-3-carboxamide] | 4 nM |
| O=C(Nc1nnc(CCc2ccc(Cl)cc2)s1)C1CC(=O)N(c2ccc(CN3CCOCC3)cc2)C1 (centres unmarked) [Compound F121, N-[5-[2-(4-chlorophenyl)ethyl]-1,3,4-thiadiazol-2-yl]-1-[4-(morpholinomethyl)phenyl]-5-oxo-pyrrolidine-3-carboxamide] | 4 nM |
| O=C(Nc1nnc(CCC2CCCC2)s1)C1CC(=O)N(c2ccc(CN3CCCOCC3)cc2)C1 (centres unmarked) [Compound F122, N-[5-(2-cyclopentylethyl)-1,3,4-thiadiazol-2-yl]-1-[4-(1,4-oxazepan-4-ylmethyl)phenyl]-5-oxo-pyrrolidine-3-carboxamide] | 4 nM |
| O=C(Nc1nnc(CCC2CCCC2)s1)C1CC(=O)N(c2ccc(CN3CCC(F)(F)CC3)cc2)C1 (centres unmarked) [Compound F123, N-[5-(2-cyclopentylethyl)-1,3,4-thiadiazol-2-yl]-1-[4-[(4,4-difluoro-1-piperidyl)methyl]phenyl]-5-oxo-pyrrolidine-3-carboxamide] | 5 nM |
| CN(Cc1ccc(N2C[C@@H](C(=O)Nc3ccc(CCc4ccc(F)cc4)nn3)CC2=O)cc1)C1CCOCC1 [Compound F126, (3S)-N-[6-[2-(4-fluorophenyl)ethyl]pyridazin-3-yl]-1-[4-[[methyl(tetrahydropyran-4-yl)amino]methyl]phenyl]-5-oxo-pyrrolidine-3-carboxamide] | 8 nM |
| CCN(Cc1ccc(N2CC(C(=O)Nc3nnc(CCc4ccc(Cl)cc4)s3)CC2=O)cc1)C(C)C (centres unmarked) [Compound F127, N-[5-[2-(4-chlorophenyl)ethyl]-1,3,4-thiadiazol-2-yl]-1-[4-[[ethyl(isopropyl)amino]methyl]phenyl]-5-oxo-pyrrolidine-3-carobxamide] | 9 nM |
| O=C(NC1CC(=O)N(c2ccc(CN3CCOCC3)cc2)C1)c1nnc(CCc2ccc(Cl)cc2)s1 (centres unmarked) [Compound F128, 5-[2-(4-chlorophenyl)ethyl]-N-[1-[4-(morpholino-methyl)phenyl]-5-oxo-pyrrolidine-3-yl]-1,3,4-thiadiazole-2-carboxamide] | 1 nM |
| O=C(NC1CC(=O)N(c2ccc(CN3CCCOCC3)cc2)C1)c1nnc(CCc2ccc(Cl)cc2)s1 (centres unmarked) [Compound F129, 5-[2-(4-chlorophenyl)ethyl]-N-[1-[4-(1,4-oxazepan-4-ylmethyl)phenyl]-5-oxo-pyrrolidin-3-yl]-1,3,4-thiadiazole-2-carboxamide] | 2 nM |
| O=C(N[C@@H]1CC(=O)N(c2ccc(CN3CCOCC3)cc2)C1)c1nnc(CCc2ccc(Cl)cc2)s1 [Compound F130, 5-[2-(4-chlorophenyl)ethyl]-N-[(3R)-1-[4-(morpholinomethyl)phenyl]-5-oxo-pyrrolidine-3-yl]-1,3,4-thiadiazole-2-carboxamide] | 2 nM |
| O=C(N[C@@H]1CCN(c2ccc(CN3CCOCC3)cc2)C1)c1nnc(CCc2ccc(Cl)cc2)s1 [Compound F131, 5-[2-(4-chloro-phenyl)-ethyl]-[1,3,4]thiadiazole-2-carboxylic acid [(R)-1-(4-morpholin-4-ylmethyl-phenyl)-pyrrolidin-3-yl]-amide hydrochloride] | 2 nM |
| O=C(NC1CC(=O)N(c2ccc(CN3CCCCCC3)cc2)C1)c1nnc(CCc2ccc(Cl)cc2)s1 (centres unmarked) [Compound F134, N-[1-[4-(azepan-1-ylmethyl)phenyl]-5-oxo-pyrrolidin-3-yl]-5-[2-(4-chlorophenyl)ethyl]-1,3,4-thiadiazole-2-carboxamide] | 3 nM |
| O=C(N[C@H]1CC(=O)N(c2ccc(CN3CCOCC3)cc2)C1)c1nnc(CCc2ccc(Cl)cc2)s1 [Compound F135, 5-[2-(4-chlorophenyl)ethyl]-N-[(3S)-1-[4-(morpholinomethyl)phenyl]-5-oxo-pyrrolidin-3-yl]-1,3,4-thiadiazole-2-carboxamide] | 3 nM |
| CC1CCN(Cc2ccc(N3CC(NC(=O)c4nnc(CCc5ccc(Cl)cc5)s4)CC3=O)cc2)CC1 (centres unmarked) [Compound F136, 5-[2-(4-chlorophenyl)ethyl]-N-[1-[4-[(4-methyl-1-piperidyl)methyl]phenyl]-5-oxo-pyrrolidin-3-yl]-1,3,4-thiadiazole-2-carboxamide] | 4 nM |
| CC1CCN(Cc2ccc(N3C[C@@H](NC(=O)c4nnc(CCc5ccc(Cl)cc5)s4)CC3=O)cc2)CC1 [Compound F137, 1-{4-[(S)-4-({5-[2-(4-chloro-phenyl)-ethyl]-[1,3,4]thiadiazole-2-carbonyl}-amino)-2-oxo-pyrrolidin-1-yl]-benzyl}-4-methyl-piperidine hydrochloride] | 4 nM |
